Molecular target: T1, human renal renin (Homo sapiens, UniProt P00797)
T1 construct: human renal renin, free from acid proteolytic activity; from tissue; host or cells: human kidney (from the word 'renal')
T1 sequence (P00797 67-406): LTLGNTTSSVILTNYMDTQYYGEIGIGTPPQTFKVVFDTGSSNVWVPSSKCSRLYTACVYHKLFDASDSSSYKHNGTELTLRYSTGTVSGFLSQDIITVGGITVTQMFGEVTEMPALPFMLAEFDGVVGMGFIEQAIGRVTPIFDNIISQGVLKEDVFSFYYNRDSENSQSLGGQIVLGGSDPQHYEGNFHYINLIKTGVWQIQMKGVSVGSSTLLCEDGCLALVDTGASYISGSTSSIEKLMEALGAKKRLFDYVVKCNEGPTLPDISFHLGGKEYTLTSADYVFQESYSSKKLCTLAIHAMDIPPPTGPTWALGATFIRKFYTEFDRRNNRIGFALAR
Assay: inhibition of human renal renin in vitro, angiotensin I formed measured by radioimmunoassay
Type: biochemical
Settings: human angiotensinogen substrate, 37 degrees C, pH 6.0
Protocol: At the end of the incubation, the amount of angiotensin I formed is measured by radioimmunoassay and the molar concentration required to cause 50% inhibition, expressed as the IC50, is calculated.

IC50: 170 nM
Compound: CC(C)C[C@H](O)[C@H](O)[C@H](CC1CCCCC1)NC(=O)[C@H](Cc1c[nH]cn1)NC(=O)c1nc2ccccc2n1Cc1ccccc1 [Example 48]

Source: patent US4994477A, “Heterocyclic renin inhibitors” (Abbott Laboratories, priority 1988, dated 1991)
